Data from patent US9328099B2, “Cyanomethylpyrazole carboxamides as janus kinase inhibitors” (Merck Sharp & Dohme Corp., priority 2011, dated 2016).

Tests used:
JAK1 = JAK1 (Homo sapiens (Human), UniProt P23458); assay: Jak Biochemical HTRF Assay, JAK1; conditions: HTRF biochemical assay, GST-tagged catalytic domain; top concentration tested […]; read-out: JAK1 IC50
From the text: (§1) Jak Biochemical HTRF Assay Protocol
(§2) Subsequent reagent additions employed an Agilent Bravo.

JAK2 = JAK2 (Homo sapiens (Human), UniProt O60674); assay: Jak Biochemical HTRF Assay, JAK2; conditions: HTRF biochemical assay, GST-tagged catalytic domain; top concentration tested […]
Chain of JAK2 (O60674 849-1124): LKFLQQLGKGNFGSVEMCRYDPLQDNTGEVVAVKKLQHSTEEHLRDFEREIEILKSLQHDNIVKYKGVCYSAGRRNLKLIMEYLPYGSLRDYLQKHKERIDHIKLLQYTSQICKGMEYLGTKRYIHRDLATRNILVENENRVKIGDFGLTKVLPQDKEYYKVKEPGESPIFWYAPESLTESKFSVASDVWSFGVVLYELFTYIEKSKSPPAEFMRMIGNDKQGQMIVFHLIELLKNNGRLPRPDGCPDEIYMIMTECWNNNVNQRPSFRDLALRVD
From the text: as §1, §2

Chain of JAK1 (P23458 875-1153): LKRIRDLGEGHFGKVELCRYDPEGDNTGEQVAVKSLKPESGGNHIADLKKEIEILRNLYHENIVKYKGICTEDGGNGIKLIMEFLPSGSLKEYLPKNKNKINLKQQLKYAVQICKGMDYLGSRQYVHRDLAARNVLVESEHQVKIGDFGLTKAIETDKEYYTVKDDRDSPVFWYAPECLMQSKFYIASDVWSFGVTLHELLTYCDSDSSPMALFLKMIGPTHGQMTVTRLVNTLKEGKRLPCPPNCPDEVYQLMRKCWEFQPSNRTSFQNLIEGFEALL

Row | SMILES | IC50 (JAK1) [nM] | IC50 (JAK2) [nM]
1 | CS(=O)(=O)c1ccc(Nc2nn(C3(CC#N)CCC4(CC3)OCCO4)cc2C(N)=O)cc1 [Example 6-7, 1-[8-(cyanomethyl)-1,4-dioxaspiro[4.5]dec-8-yl]-3-{[4-(methylsulfonyl)phenyl]amino}-1H-pyrazole-4-carboxamide] | 19 | 206
2 | N#CCC1(n2cc(C(N)=O)c(Nc3ccc(F)cc3)n2)CCS(=O)(=O)CC1 [Example 8, 1-(4-(Cyanomethyl)-1,1-dioxidotetrahydro-2H-thiopyran-4-yl)-3-((4-fluorophenyl)amino)-1H-pyrazole-4-carboxamide] | 50 | 813
3 | CC(C)(C)OC(=O)N1CCC(CC#N)(n2cc(C(N)=O)c(Nc3ccnc(F)c3)n2)CC1 [Example 9-1, tert-Butyl 4-{4-carbamoyl-3-[(2-fluoropyridin-4-yl)amino]-1H-pyrazol-1-yl}-4-(cyanomethyl)piperidine-1-carboxylate] | 0.2 | 5
4 | CC(C)(C)OC(=O)N1CCC(CC#N)(n2cc(C(N)=O)c(Nc3ccc(C#N)nc3)n2)CC1 [Example 9-12, tert-butyl 4-{4-carbamoyl-3-[(6-cyanopyridin-3-yl)amino]-1H-pyrazol-1-yl}-4-(cyanomethyl)piperidine-1-carboxylate] | 0.5 | 6
5 | Cn1ccc(-c2ccc(Nc3nn(C4(CC#N)CCN(C(=O)OC(C)(C)C)CC4)cc3C(N)=O)cc2)n1 [Example 9-13, tert-butyl 4-(4-carbamoyl-3-{[4-(1-methyl-1H-pyrazol-3-yl)phenyl]amino}-1H-pyrazol-1-yl)-4-(cyanomethyl)piperidine-1-carboxylate] | 3 | 138
6 | CC(C)(C)OC(=O)N1CCC(CC#N)(n2cc(C(N)=O)c(Nc3ccnc(N)c3)n2)CC1 [Example 9-14, tert-butyl 4-{3-[(2-aminopyridin-4-yl)amino]-4-carbamoyl-1H-pyrazol-1-yl}-4-(cyanomethyl)piperidine-1-carboxylate] | 0.2 | 3
7 | Cc1cc(Nc2nn(C3(CC#N)CCN(C(=O)OC(C)(C)C)CC3)cc2C(N)=O)ccn1 [Example 9-17, tent-butyl 4-{4-carbamoyl-3-[(2-methylpyridin-4-yl)amino]-1H-pyrazol-1-yl}-4-(cyanomethyl)piperidine-1-carboxylate] | 15 | 133
8 | CC(C)(C)OC(=O)N1CCC(CC#N)(n2cc(C(N)=O)c(Nc3ccnc(CO)c3)n2)CC1 [Example 9-18, tert-butyl 4-(4-carbamoyl-3-{[2-(hydroxymethyl)pyridin-4-yl]amino}-1H-pyrazol-1-yl)-4-(cyanomethyl)piperidine-1-carboxylate] | 6 | 101
9 | CC(C)(C)OC(=O)N1CCC(CC#N)(n2cc(C(N)=O)c(Nc3ccc(C(=O)N4CCOCC4)c(F)c3)n2)CC1 [Example 9-24, tert-butyl 4-(4-carbamoyl-3-{[3-fluoro-4-(morpholin-4-ylcarbonyl)phenyl]amino}-1H-pyrazol-1-yl)-4-(cyanomethyl)piperidine-1-carboxylate] | 0.2 | 0.7
10 | CC(C)(C)OC(=O)N1CCC(CC#N)(n2cc(C(N)=O)c(Nc3ccc(C(=O)N4CCOCC4)cc3)n2)CC1 [Example 9-25, tert-butyl 4-(4-carbamoyl-3-{[4-(morpholin-4-ylcarbonyl)phenyl]amino}-1H-pyrazol-1-yl)-4-(cyanomethyl)piperidine-1-carboxylate] | 0.3 | 0.7
11 | CC(C)(C)OC(=O)N1CCC(CC#N)(n2cc(C(N)=O)c(Nc3ccc(C#N)c(F)c3)n2)CC1 [Example 9-26, tert-butyl 4-{4-carbamoyl-3-[(4-cyano-3-fluorophenyl)amino]-1H-pyrazol-1-yl}-4-(cyanomethyl)piperidine-1-carboxylate] | 0.4 | 7
12 | CC(C)(C)OC(=O)N1CCC(CC#N)(n2cc(C(N)=O)c(Nc3ccc(F)c(F)c3)n2)CC1 [Example 9-28, tert-butyl 4-{4-carbamoyl-3-[(3,4-difluorophenyl)amino]-1H-pyrazol-1-yl}-4-(cyanomethyl)piperidine-1-carboxylate] | 1 | 24
13 | CC(C)(C)OC(=O)N1CCC(CC#N)(n2cc(C(N)=O)c(Nc3ccnc(Cl)c3)n2)CC1 [Example 9-29, tert-butyl 4-{4-carbamoyl-3-[(2-chloropyridin-4-yl)amino]-1H-pyrazol-1-yl}-4-(cyanomethyl)piperidine-1-carboxylate] | 0.1 | 3

Other lines, results leading:

Row | IC50 (JAK1) [nM] | IC50 (JAK2) [nM] | SMILES
14 | 0.3 | 9 | COC(=O)c1ccc(Nc2nn(C3(CC#N)CCN(C(=O)OC(C)(C)C)CC3)cc2C(N)=O)cc1 [Example 9-2, tert-butyl 4-(4-carbamoyl-3-{[4-(methoxycarbonyl)phenyl]amino}-1H-pyrazol-1-yl)-4-(cyanomethyl)piperidine-1-carboxylate]
15 | 0.8 | 21 | CC(C)(C)OC(=O)N1CCC(CC#N)(n2cc(C(N)=O)c(Nc3ccc(F)cc3)n2)CC1 [Example 9-3, tert-butyl 4-{4-carbamoyl-3-[(4-fluorophenyl)amino]-1H-pyrazol-1-yl}-4-(cyanomethyl)piperidine-1-carboxylate]
16 | 0.1 | 2 | CNC(=O)c1ccc(Nc2nn(C3(CC#N)CCN(C(=O)OC(C)(C)C)CC3)cc2C(N)=O)cc1 [Example 9-4, tert-Butyl 4-[4-(aminocarbonyl)-3-({4-[(methylamino)carbonyl]phenyl}amino)-1H-pyrazol-1-yl]-4-(cyanomethyl)piperidine-1-carboxylate]
17 | 0.2 | 6 | CC(C)(C)OC(=O)N1CCC(CC#N)(n2cc(C(N)=O)c(Nc3ccc(C#N)cc3)n2)CC1 [Example 9-5, tert-butyl 4-{4-carbamoyl-3-[(4-cyanophenyl)amino]-1H-pyrazol-1-yl}-4-(cyanomethyl)piperidine-1-carboxylate]
18 | 0.8 | 3 | CC(C)(C)OC(=O)N1CCC(CC#N)(n2cc(C(N)=O)c(Nc3ccc(C(C)(C)O)nc3)n2)CC1 [Example 9-6, tert-butyl 4-(4-carbamoyl-3-(6-(2-hydroxypropan-2-yl)pyridin-3-ylamino)-1H-pyrazol-1-yl)-4-(cyanomethyl)piperidine-1-carboxylate]
19 | 0.5 | 2 | CC(O)c1ccc(Nc2nn(C3(CC#N)CCN(C(=O)OC(C)(C)C)CC3)cc2C(N)=O)cn1 (centres unmarked) [Example 9-7, tert-butyl 4-(4-carbamoyl-3-(6-(1-hydroxyethyl)pyridin-3-ylamino)-1H-pyrazol-1-yl)-4-(cyanomethyl)piperidine-1-carboxylate]
20 | 0.3 | 3 | CC(C)(C)OC(=O)N1CCC(CC#N)(n2cc(C(N)=O)c(Nc3ccc(C(C)(C)O)cc3)n2)CC1 [Example 9-8, tert-butyl 4-(4-carbamoyl-3-(4-(2-hydroxypropan-2-yl)phenylamino)-1H-pyrazol-1-yl)-4-(cyanomethyl)piperidine-1-carboxylate]
21 | 0.4 | 6 | CC(O)c1ccc(Nc2nn(C3(CC#N)CCN(C(=O)OC(C)(C)C)CC3)cc2C(N)=O)cc1 (centres unmarked) [Example 9-9, tert-butyl 4-(4-carbamoyl-3-(4-(1-hydroxyethyl)phenylamino)-1H-pyrazol-1-yl)-4-(cyanomethyl)piperidine-1-carboxylate]
22 | 0.2 | 3 | CC(=O)c1ccc(Nc2nn(C3(CC#N)CCN(C(=O)OC(C)(C)C)CC3)cc2C(N)=O)cc1 [Example 9-10, tert-butyl 4-(3-(4-acetylphenylamino)-4-carbamoyl-1H-pyrazol-1-yl)-4-(cyanomethyl)piperidine-1-carboxylate]
23 | 0.2 | 3 | CC(C)(C)OC(=O)N1CCC(CC#N)(n2cc(C(N)=O)c(Nc3ccc(C(=O)C(F)(F)F)cc3)n2)CC1 [Example 9-11, tert-butyl 4-(4-carbamoyl-3-{[4-(trifluoroacetyl)phenyl]amino}-1H-pyrazol-1-yl)-4-(cyanomethyl)piperidine-1-carboxylate]
24 | 0.09 | 0.6 | CC(C)(C)OC(=O)N1CCC(CC#N)(n2cc(C(N)=O)c(Nc3ccc(S(=O)(=O)C(F)F)cc3)n2)CC1 [Example 9-16, tert-butyl 4-[4-carbamoyl-3-({4-[(difluoromethyl)sulfonyl]phenyl}amino)-1H-pyrazol-1-yl]-4-(cyanomethyl)piperidine-1-carboxylate]
25 | 0.1 | 1 | CC(C)(C)OC(=O)N1CCC(CC#N)(n2cc(C(N)=O)c(Nc3ccc(S(N)(=O)=O)cc3)n2)CC1 [Example 9-20, tert-butyl 4-{4-carbamoyl-3-[(4-sulfamoylphenyl)amino]-1H-pyrazol-1-yl}-4-(cyanomethyl)piperidine-1-carboxylate]
26 | 0.3 | 0.8 | CN(C)S(=O)(=O)c1ccc(Nc2nn(C3(CC#N)CCN(C(=O)OC(C)(C)C)CC3)cc2C(N)=O)cc1 [Example 9-21, tert-butyl 4-(4-carbamoyl-3-{[4-(dimethylsulfamoyl)phenyl]amino}-1H-pyrazol-1-yl)-4-(cyanomethyl)piperidine-1-carboxylate]
27 | 0.2 | 5 | Cc1noc(-c2ccc(Nc3nn(C4(CC#N)CCN(C(=O)OC(C)(C)C)CC4)cc3C(N)=O)cc2)n1 [Example 9-30, tert-butyl 4-(4-carbamoyl-3-{[4-(3-methyl-1,2,4-oxadiazol-5-yl)phenyl]amino}-1H-pyrazol-1-yl)-4-(cyanomethyl)piperidine-1-carboxylate]
28 | 0.3 | 8 | Cc1nc(-c2ccc(Nc3nn(C4(CC#N)CCN(C(=O)OC(C)(C)C)CC4)cc3C(N)=O)cc2)no1 [Example 9-32, tert-butyl 4-(4-carbamoyl-3-{[4-(5-methyl-1,2,4-oxadiazol-3-yl)phenyl]amino}-1H-pyrazol-1-yl)-4-(cyanomethyl)piperidine-1-carboxylate]
